The values below come from PubChem BioAssay (NCI).

Among the test systems are A549 NSCLC; COLO 205 colon; DU-145 prostate; EKVX NSCLC; HL-60(TB) leukemia; HOP-62 NSCLC; HS 578T breast; LOX IMVI melanoma; M14 melanoma; MCF7 breast; NCI-H226 lung; NCI-H460 lung; OVCAR-3 ovarian; OVCAR-5 ovarian; OVCAR-8 ovarian; RXF 393 renal; SF-295 CNS; SN12C renal; SW-620 colon.
Holding throughout (experiment): DTP human tumour cell line panel, 48 h

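Where inhibition never reached the appropriate level, the endpoint shown equals the highest concentration tested. Otherwise, values were interpolated linearly from a five-concentration, 48-hour dose response in 96-well plates. TGI marks complete inhibition of growth.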

For orientation: TGI means the concentration giving total growth inhibition. In the case of `COc1ccc(-c2cn3c(nc4ccccc43)c(C)n2)cc1`, the concentration for total growth inhibition (TGI) in the experiment with A549 NSCLC, with COLO 205 colon, with DU-145 prostate, with EKVX NSCLC, with HL-60(TB) leukemia and in the experiment with HOP-62 NSCLC was more than 100 µM each time. Also, the concentration for total growth inhibition (TGI) in the experiment with HS 578T breast, with LOX IMVI melanoma, in the experiment with M14 melanoma, with MCF7 breast, in the experiment with NCI-H226 lung and in the experiment on NCI-H460 lung was more than 100 µM in each case. In addition, the concentration for total growth inhibition (TGI) is more than 100 µM in the experiment with OVCAR-3 ovarian; more than 100 µM in the experiment on OVCAR-5 ovarian; more than 96.6 µM with OVCAR-8 ovarian; more than 88.9 µM in the experiment on RXF 393 renal; more than 100 µM with SF-295 CNS; more than 100 µM with SN12C renal. This compound showed a concentration for total growth inhibition (TGI) in the experiment on SW-620 colon of more than 100 µM.

As to `CC(=O)OCC1OC(O[C@@H]2C[C@H]3C(C)(C)[C@H](OC(C)=O)CC[C@]3(C)[C@H]3CC[C@@]45C[C@H](O)C[C@H](C)[C@@H]4CC=C5[C@@]32C)C(O)C(O)C1O` (stereo partly drawn), the TGI in the experiment with A549 NSCLC was 16.9 µM; in the experiment on COLO 205 colon, 3.28 µM; in the experiment on DU-145 prostate, 20.6 µM; in the experiment on EKVX NSCLC, 22 µM; with HL-60(TB) leukemia, 3.86 µM; in the experiment on HOP-62 NSCLC, 23.8 µM. In addition, the TGI in the experiment on HS 578T breast stood at 18.2 µM; with LOX IMVI melanoma it was 4.07 µM; in the experiment on M14 melanoma it was 14.8 µM; in the experiment with MCF7 breast, 11 µM; in the experiment with NCI-H226 lung it was 16.1 µM; with NCI-H460 lung, 12.5 µM. Besides, the TGI is 10.6 µM with OVCAR-3 ovarian; 6.42 µM in the experiment with OVCAR-5 ovarian; 17.4 µM in the experiment with OVCAR-8 ovarian; 6.23 µM in the experiment with RXF 393 renal; 12.5 µM in the experiment on SF-295 CNS; 15.5 µM with SN12C renal. In the experiment on SW-620 colon, this compound registered a TGI of 16.6 µM.

Regarding `Cc1cc(C)nc(NC(=S)Nc2cccc(Cl)c2)c1`, the concentration for total growth inhibition (TGI) in the experiment on A549 NSCLC, with COLO 205 colon, in the experiment on DU-145 prostate, in the experiment on EKVX NSCLC, in the experiment with HL-60(TB) leukemia and in the experiment with HOP-62 NSCLC was more than 100 µM in each case. The concentration for total growth inhibition (TGI) with HS 578T breast was more than 100 µM; in the experiment on LOX IMVI melanoma, more than 100 µM; in the experiment with M14 melanoma, more than 100 µM; in the experiment on MCF7 breast, more than 58.3 µM; with NCI-H226 lung it was more than 100 µM; in the experiment on NCI-H460 lung it was more than 100 µM. Also, the concentration for total growth inhibition (TGI) in the experiment on OVCAR-3 ovarian, in the experiment on OVCAR-5 ovarian, in the experiment with OVCAR-8 ovarian, with RXF 393 renal, in the experiment with SF-295 CNS and with SN12C renal was more than 100 µM throughout. The TGI in the experiment with SW-620 colon is more than 100 µM.

Regarding `C/C(=N\N=C(\N)OB(F)F)c1ccccn1`, the TGI in the experiment on A549 NSCLC, in the experiment on COLO 205 colon, in the experiment on DU-145 prostate, in the experiment with EKVX NSCLC, with HL-60(TB) leukemia and in the experiment with HOP-62 NSCLC was more than 100 µM throughout. In addition, the concentration for total growth inhibition (TGI) with HS 578T breast, in the experiment with LOX IMVI melanoma, in the experiment on M14 melanoma, in the experiment on MCF7 breast, with NCI-H226 lung and in the experiment on NCI-H460 lung was more than 100 µM in each case. Besides, the concentration for total growth inhibition (TGI) in the experiment on OVCAR-3 ovarian is more than 100 µM; in the experiment with OVCAR-5 ovarian it was more than 100 µM; in the experiment with OVCAR-8 ovarian, more than 100 µM; in the experiment on RXF 393 renal, 42.6 µM; in the experiment with SF-295 CNS, more than 100 µM; in the experiment on SN12C renal it was more than 100 µM. In the experiment on SW-620 colon, this compound showed a TGI of more than 100 µM.

Consider `CCOC(=O)C(Cc1ccc(OC(=O)c2ccc(OC)cc2OC)cc1)NC(=O)C(F)(F)F` (stereo not drawn), for which the TGI in the experiment with A549 NSCLC is more than 100 µM; with COLO 205 colon it was 43.9 µM; in the experiment with DU-145 prostate, 34.4 µM; in the experiment on EKVX NSCLC, 49.6 µM; in the experiment on HL-60(TB) leukemia, 51.1 µM; in the experiment on HOP-62 NSCLC it was 44.9 µM. The concentration for total growth inhibition (TGI) was 83.5 µM with HS 578T breast; 36 µM in the experiment on LOX IMVI melanoma; 33.8 µM in the experiment with M14 melanoma; 47.4 µM in the experiment on MCF7 breast; more than 100 µM with NCI-H226 lung; more than 100 µM in the experiment on NCI-H460 lung. For the same compound, the TGI is 36.9 µM in the experiment with OVCAR-3 ovarian; more than 100 µM in the experiment with OVCAR-5 ovarian; 51 µM in the experiment on OVCAR-8 ovarian; 36.2 µM with RXF 393 renal; 91.5 µM in the experiment with SF-295 CNS; more than 100 µM in the experiment on SN12C renal. For the same compound, the TGI with SW-620 colon was more than 100 µM.

As for `NC(=O)ON=C1CCN(Cc2ccccc2)CC1`, the TGI with A549 NSCLC, in the experiment on COLO 205 colon, with DU-145 prostate, in the experiment on EKVX NSCLC, in the experiment on HL-60(TB) leukemia and in the experiment with HOP-62 NSCLC was more than 100 µM in each case. The concentration for total growth inhibition (TGI) in the experiment on HS 578T breast, in the experiment with LOX IMVI melanoma, with M14 melanoma, with MCF7 breast, in the experiment with NCI-H226 lung and in the experiment with NCI-H460 lung was more than 100 µM throughout. The total growth inhibition concentration (TGI) in the experiment on OVCAR-3 ovarian, in the experiment on OVCAR-5 ovarian, with OVCAR-8 ovarian, in the experiment with RXF 393 renal, with SF-295 CNS and with SN12C renal was more than 100 µM throughout. For the same compound, the TGI in the experiment on SW-620 colon was more than 100 µM.

As to `CCOC(=O)CCC(NC(=O)N1CCN(c2c(C)nc(C)[nH]c2=O)CC1)C(=O)OCC` (stereo not drawn), the TGI in the experiment with A549 NSCLC, in the experiment with COLO 205 colon, in the experiment on DU-145 prostate, in the experiment on EKVX NSCLC, in the experiment on HL-60(TB) leukemia and with HOP-62 NSCLC was more than 100 µM in each case. In addition, the TGI in the experiment with HS 578T breast, in the experiment on LOX IMVI melanoma, in the experiment with M14 melanoma, in the experiment on MCF7 breast, in the experiment with NCI-H226 lung and in the experiment on NCI-H460 lung was more than 100 µM in each case. Moreover, the TGI in the experiment on OVCAR-3 ovarian, in the experiment with OVCAR-5 ovarian, in the experiment on OVCAR-8 ovarian, in the experiment on RXF 393 renal, with SF-295 CNS and in the experiment with SN12C renal was more than 100 µM throughout. Besides, the total growth inhibition concentration (TGI) in the experiment on SW-620 colon is more than 100 µM.
